Experimental findings from publication PMC8333053, “Synthesis and biological screening of new thiadiazolopyrimidine-based polycyclic compounds” (Scientific Reports, 2021) are described below.

One data set has as its system Bacillus cereus UW85. Description: Antibacterial MIC, two-fold serial dilution. The format is cell-based. To be noted: Gram +ve bacteria, LB broth, 37°C, 24 h, visual (no turbidity), read-out: MIC B. cereus. On the procedure: (§1) The antimicrobial activity of the synthesized thiadiazolopyrimidine compounds was studied toward diverse pathogenic strains, such as gram-positive bacteria (Staphylococcus aureus ATCC 29213 and Bacillus cereus UW85), gram-negative bacteria (Escherichia coli ATCC 12435 and Pseudomonas aeruginosa ATCC 29260), and fungi (Candida albicans and Aspergillus fumigatus 293). The assessment was performed through the two-fold dilution technique using Ampicillin (antibacterial) and Fluconazole (antifungal) as the reference drugs[28],[29]. The minimal inhibitory concentration (MICs, µg/mL) of the synthesized derivatives for prohibiting microbial growth was determined through the visual detection (no turbidity) technique.
(§2) The synthesized thiadiazolopyrimidine-based compounds were evaluated and adopted for antibacterial and antifungal effectiveness using the approved procedure[38],[39].
(§3) Minimal inhibitory concentrations (MICs) were determined by serial dilution technique using 96-multiwell microtiter plates. The investigated compounds were dissolved in DMSO 100% to prepare stock solutions of 5000 µg/mL. Two-fold serial dilutions of the dissolved compounds were performed in LB broth providing eight different concentrations (1250, 625, 312.5, 156, 78, 39, 19.5 µg/mL). Overnight cultures of microorganisms were diluted to 1 ×10^6 CFU/mL in LB broth, and 20 mL of the diluted cultures were added to the test solutions (50 mL) in the wells (one well per concentration per bacterial strain). The plates were incubated at 37°C for 24 h. MIC was detected visually as the least concentration inhibiting bacterial growth (no turbidity) and the activity of the tested compounds was estimated in comparison to ampicillin.

Data set [1] has as its system Escherichia coli ATCC 12435. Description: Antibacterial MIC, two-fold serial dilution. To be noted: ATCC12435, Gram −ve bacteria, LB broth, 37°C, 24 h, visual (no turbidity). The format is cell-based. On the procedure: as §1, §2, §3
For data set [2], the system named is Pseudomonas aeruginosa ATCC 29260. Description: Antibacterial MIC, two-fold serial dilution. To be noted: ATCC29260, Gram −ve bacteria, LB broth, 37°C, 24 h, visual (no turbidity), read-out: MIC P. aeruginosa. The format is cell-based. On the procedure:
as §1, §2, §3

The test system of data set [3] is Staphylococcus aureus ATCC 29213. Description: Antibacterial MIC, two-fold serial dilution. The format is cell-based. To be noted: ATCC29213, Gram +ve bacteria, LB broth, 37°C, 24 h, visual (no turbidity), read-out: MIC S. aureus. On the procedure:
as §1, §2, §3

For data set [4], the system named is Aspergillus fumigatus 293. Description: Antifungal MIC, two-fold serial dilution. The format is cell-based. Particulars: Fungi, glucose minimal medium, 30°C, 48 h, visual (no turbidity). On the procedure:
as §1, §2
(§4) Minimal inhibitory concentrations (MICs) were determined by serial dilution technique using 96-multiwell microtiter plates. The investigated compounds were dissolved in DMSO 100% to prepare stock solutions of 5000 µg/mL. Two-fold serial dilutions of the dissolved compounds were performed in glucose minimal medium providing eight different concentrations (1250, 625, 312.5, 156, 78, 39, 19.5 µg/mL). The microorganisms were diluted to 1 ×10^3 SFU/mL in glucose minimal medium, and 20 µL of the diluted culture was added to the test solutions (50 µL) in the wells (one well per concentration). The plates were incubated at 30°C for 48 h. MIC was detected visually as the least concentration inhibiting fungal growth (no turbidity) and the activity of the tested compounds was estimated in comparison to fluconazole.

Another data set concerns Candida albicans. Description: Antifungal MIC, two-fold serial dilution. Type of data set: cell-based. To be noted: Fungi, glucose minimal medium, 30°C, 48 h, visual (no turbidity). On the procedure:
as §1, §2, §4

Another data set concerns DNA. Description: Bleomycin-dependent DNA damage. Type of data set: biochemical. Particulars: test sample 0.1 mg/mL, λ = 532 nm; mean of three replicates ± SD; ascorbic acid 0.24 mM. The source says:
Bleomycin-dependent DNA damage. The prepared polycyclic thiadiazolopyrimidine-based compounds were examined through the bleomycin-dependant DNA damage, and the results were compared to that of ascorbic acid as a positive control. The obtained data reflected the ability of these derivatives to protect the DNA from damage. The capability of compounds 16a–b and 17a–b to manifest the best protective effect against DNA damage was indicated by the corresponding absorbance values ranging from 0.031 to 0.053 (Table 4)[35],[36].
Bleomycin-dependent DNA damage experiment: To a mixture of 0.5 mg / mL of DNA, 5 mM magnesium chloride, 50 mM ferric chloride and 0.05 mg / mL bleomycin sulfate was prepared. The test sample was prepared at a concentration of 0.1 mg / mL and added to the mixture. After incubation of the mixture for one hour at 37 °C, 0.05 mL of EDTA (0.1 M) was added to terminate the reaction. In the next step, 0.5 mL of TBA (1% w / v) and 0.5 mL of HCl (25% v / v) were added for colour development and the mixture was heated for 10 minutes at 80 °C. The mixture was centrifuged and the absorbance expressed, the amount of damage to the DNA was measured at λ = 532 nm. L-Ascorbic acid (0.24 mM) was used as a positive control.

Data set [5] deals with Chromobacterium violaceum (ATCC 12472). Description: Antiquorum-sensing assay (violacein pigment inhibition). The format is cell-based. To be noted: 5 mg/mL, 50 µL per well, 30°C, 48 h; QS inhibition = r2 − r1. An excerpt:
The synthesized thiadiazolopyrimidine-based compounds were screened for their antiquorum-sensing (anti-QS) inhibition activity by the Chromobacterium violaceum (ATCC 12472) technique using catechin as the standard compound[28]–[30]. The QS technique of C. violaceum was remarked by the detection of violacein (violet pigment)[31],[32]. Meanwhile, the reactivity of the synthesized thiadiazolopyrimidine-containing derivatives as drugs depends on their efficiency to inhibit the liberation of violacein during the QS technique. The QS inhibition was determined by the following equation: QS inhibition (mm) = (r2 − r1), where r1 is the inhibition radius of the bacterial growth and r2 is the inhibition radius for growth as well as the release of the pigment.
The anti-QS inefficiency was evaluated using the previous technique mentioned in the literature.
The culture was prepared by growing Ch. violaceum ATCC 12472 in LB broth and incubated for 16–18 h in an orbital incubator running at 28°C and 150 rpm. The culture was then adjusted to 0.5 McFarland standard (ca. 1 × 10^6 CFU/mL). Ch. violaceum (50 µL) was inoculated into LB agar (50 mL), poured into plates, and solidified. Wells were made in LB agar medium using cork borer. The tested compounds were dissolved in DMSO 100% in Eppendorf tubes for final concentration of 5 mg/mL, and 50 µL of the test solution was applied into the wells. The positive control (catechin) was also added at the same concentration and volume to each plate. In addition, DMSO (control solvent) was added to each plate. […] Bacterial growth inhibition by the tested compounds was measured as radius (r1) in mm, while both growth and pigment inhibition was measured as radius (r2) in mm. The pigment inhibition (QS inhibition) was determined by subtracting bacterial growth inhibition (r1) from the total radius (r2); thus, QS inhibition = (r2 - r1) in mm.

Another data set has as its system Hep-2. Description: MTT cytotoxicity assay. Type of data set: cell-based. Particulars: Homo sapiens, HEp-2, 72 h, 3 days. On the procedure:
(§5) The cytotoxicity of the prepared tri-and tetra-cyclic thiadiazolopyrimidine compounds were examined toward various cancer cell lines, such as liver and breast cancer (MCF-7), prostate cancer (PC3), laryngeal carcinoma (Hep-2), carcinoma (HepG2), and standard normal fibroblast cells (WI38) using the MTT assay[33] at the National Research Centre (Egypt). The cytotoxicity (Table 3) toward 50% inhibition of the cell viability (IC50 values) was assessed using 5-fluorouracil (5-Fu) as the standard anticancer drug.
(§6) The synthesized compounds were subjected to the MTT cytotoxicity assay on the basis of the cited literature.
(§7) MTT cytotoxicity assay: The technical method of MTT assay depends on the reduction of yellow 3-(4,5-methyl-2-thiazolyl)-2,5-diphenyl-2H-tetrazolium bromide (MTT) into purple formazan product, mainly by mitochondrial reductase activity inside the living cells. The cells used in cytotoxicity assay were cultured in RPMI 1640 medium supplemented with 10% fetal calf serum. Cells suspended in the medium (2×10^4 cells/mL) were plated in 96-well culture plates and incubated at 37 °C in a 5% CO2 incubator for 12 hours. The tested sample (2 μL) was added to the cells (2×10^4) in 96-well plates and cultured at 37 °C for 3 days. The cultured cells were mixed with 20 μL of MTT solution and incubated for 4 hours at 37 °C. The supernatant was carefully removed from each well, the formazan crystals were dissolved after addition of DMSO (100 μL) for each well to form the cellular reduction of MTT. After mixing with a mechanical plate mixer, the absorbance of each well was measured by a microplate reader using a test wavelength of 570 nm. The results were expressed as the IC50 values, which inducing 50% inhibition of cell growth of the treated cells when compared to the growth of control cells.
(In general: Formazan colour is commonly taken as a measure of viable cells.)

For the next data set, the system named is HepG2. Description: MTT cytotoxicity assay. The format is cell-based. Particulars: Homo sapiens, HepG2, 72 h, 3 days. On the procedure:
as §5, §6, §7

Another data set deals with MCF-7. Description: MTT cytotoxicity assay. To be noted: Homo sapiens, MCF7, 72 h, 3 days. Type of data set: cell-based. On the procedure:
as §5, §6, §7

Another data set concerns PC3. Description: MTT cytotoxicity assay. The format is cell-based. To be noted: Homo sapiens, PC-3, 72 h, 3 days. On the procedure:
as §5, §6, §7

Data set [6] can be described thus: MTT cytotoxicity assay on normal cells. Type of data set: cell-based. Particulars: human, WI38 normal fibroblast cells. On the procedure: as §5, §6, §7

≈ marks a conversion by molar mass, not a printed value.

In the case of `CC1(C)S[C@@H]2[C@H](NC(=O)[C@H](N)c3ccccc3)C(=O)N2[C@H]1C(=O)O` [Ampicillin, reference compound], the MIC (as a rule, the lowest concentration found to suppress growth) was 1250 µg/mL (≈ 3.58 mM) with Bacillus cereus UW85, 19.5 µg/mL (≈ 0.0558 mM) in [1], 78 µg/mL (≈ 0.223 mM) in data set [2] and > 1250 µg/mL in data set [3].

Turning to `OC(Cn1cncn1)(Cn1cncn1)c1ccc(F)cc1F` [Fluconazole, reference compound], the MIC (in data set [4]; in the data set with Candida albicans) was > 1250 µg/mL throughout.

Consider `O=C1O[C@H]([C@@H](O)CO)C(O)=C1O` [Ascorbic acid, L-Ascorbic acid, reference compound], for which the “Absorbance (bleomycin-dependent DNA damage)” value in the data set on DNA is 0.060 ± 0.02.

Consider `O.Oc1cc(O)c2c(c1)O[C@H](c1ccc(O)c(O)c1)[C@@H](O)C2` [Catechin, catechin, reference compound], for which, in data set [5], the “Diameter of quorum-sensing inhibition C. violaceum” value is recorded as 2 mm.

For the molecule `O=c1[nH]cc(F)c(=O)[nH]1` [Compound 5-Fu, 5-Fluorouracil, reference compound], the IC50 – broadly, the concentration at which inhibition is half-maximal – was found to be 5.35 ± 0.23 µM in the data set on Hep-2, 7.2 ± 0.45 µM in the data set with HepG2, 5.58 ± 0.31 µM with MCF-7 and 8.78 ± 0.6 µM in the data set on PC3. The molecule also registered a 50% inhibitory concentration (IC50) at 3 days in data set [6] of 10.3 ± 0.62 µM.
